According to patent publication US10994015B2, “EGFR proteolysis targeting chimeric molecules and associated methods of use” (Arvinas Operations, Inc., priority 2016, dated 2021):
pIC50: −log10 of the molar value.

Tests used:
[1] = biological target: EGFR Exon20NPG (Homo sapiens (Human), UniProt P00533, INS770NPG); experiment: TR-FRET assay for ERBB kinases; format: biochemical; settings: geometric mean if measured more than once
Description: (§1) TR-FRET Assay for ERBB Kinases
(§2) All compounds and PROTACs were serially diluted in three-fold increments using 100% DMSO, followed by an intermediate 10-fold dilution using Buffer A (50 mM HEPES, pH 7.5, 50 mM NaCl, 10 mM MgCl2, 1 mM DTT, and 0.1% Pluronic F-68). Two microliters of serially diluted compound or PROTAC were then transferred to black 384-well Proxiplates (PerkinElmer, #6008260) using an Integra Viaflo96. Next, 10 uL of protein kinase in Buffer A was added to each well of the assay plate and pre-incubated with compound for 10 minutes. Kinase reactions were then initiated by addition of 5 uL substrate mix containing 3 mM ATP and 30 uM fluorescein-labeled Poly-GluTyr (Thermo Fisher, #PV3610) in Buffer A and allowed to proceed for 10 minutes at room temperature. Reactions were quenched by addition of a 5 uL mixture containing 5 nM LanthaScreen® Tb-pY20 Antibody (Thermo Fisher, #PV3552) and 40 mM EDTA in Buffer A. Assay plates were then read using a Synergy2 (Biotek Instruments, Winooski, Vt.) via excitation thru a 340/20 nm bandpass filter and emission collected thru 490/10 nm (donor) and 520/25 nm (acceptor) bandpass filters.

[2] = biological target: EGFR L858R/T790M/C797S triple mutant (H520*) (Homo sapiens (Human), UniProt P00533, C797S/L858R/T790M); experiment: EGFR protein degradation assay (Western blot); format: cell-based; settings: 72 hours, 300 nM to 10 nM
Description: (§3) EGFR Protein Degradation assay
Cells were incubated overnight at 37° C., 5% CO2 prior to compound addition. A 10 mM compound stock in DMSO was serially diluted in DMSO to provide the following stock concentrations: 1, 0.3, 0.1, 0.03 and 0.01 mM. An appropriate volume of each compound dilution, together with a DMSO vehicle control, was added to media to provide a 2× compound solution. […] At the end of the compound treatment, cells were washed once with ice-cold phosphate-buffered saline (PBS) and treated with lysis solution (1× lysis buffer, Cell Signaling Technologies (CST #9803) supplemented with Piarce™ protease inhibitors, #A32953, Thermo Fisher Scientific, TFS). Lysates were collected and clarified of cell debris by spinning at 10K rpm for 10 minutes. A specific volume of supernatant was retrieved for protein quantification (Pierce™ BCA kit, TFS #23225) and for Western analysis. Loading buffer supplemented with EDTA and reducing agent was added to each supernatant. A specific volume of supernatant (determined by protein assay: […] loaded per sample) was loaded into a NuPAGE™ 4-12% Bis-Tris gel (TFS). Samples were run at 165V in MOPS running buffer for 2 hours and then transferred to PVDF blotting membrane using a dry blotting system (iBlot2, TFS). Membranes were blocked in Tris-buffered saline supplemented with Tween, 0.1% (TBST) containing 5% non-fat dry milk, (AmericanBio). Following block, membranes were washed once with TBST. […] Membranes were washed 3× with TBST prior to addition of secondary antibody (1:10 000, anti-rabbit HRP-linked, CST #7074) in TBST with 3% BSA and then incubated at room temperature for one hour. Membranes were then washed 3× with TBS and signal developed by exposure to developer (SuperSignal West Femto, TFS) for 5 minutes. Membranes were then immediately imaged using a BioRad Chemidoc.

[3] = biological target: EGFR WT (Homo sapiens (Human), UniProt P00533); experiment: TR-FRET assay for ERBB kinases; format: biochemical; settings: geometric mean if measured more than once
Chain of EGFR WT (P00533 25-1210): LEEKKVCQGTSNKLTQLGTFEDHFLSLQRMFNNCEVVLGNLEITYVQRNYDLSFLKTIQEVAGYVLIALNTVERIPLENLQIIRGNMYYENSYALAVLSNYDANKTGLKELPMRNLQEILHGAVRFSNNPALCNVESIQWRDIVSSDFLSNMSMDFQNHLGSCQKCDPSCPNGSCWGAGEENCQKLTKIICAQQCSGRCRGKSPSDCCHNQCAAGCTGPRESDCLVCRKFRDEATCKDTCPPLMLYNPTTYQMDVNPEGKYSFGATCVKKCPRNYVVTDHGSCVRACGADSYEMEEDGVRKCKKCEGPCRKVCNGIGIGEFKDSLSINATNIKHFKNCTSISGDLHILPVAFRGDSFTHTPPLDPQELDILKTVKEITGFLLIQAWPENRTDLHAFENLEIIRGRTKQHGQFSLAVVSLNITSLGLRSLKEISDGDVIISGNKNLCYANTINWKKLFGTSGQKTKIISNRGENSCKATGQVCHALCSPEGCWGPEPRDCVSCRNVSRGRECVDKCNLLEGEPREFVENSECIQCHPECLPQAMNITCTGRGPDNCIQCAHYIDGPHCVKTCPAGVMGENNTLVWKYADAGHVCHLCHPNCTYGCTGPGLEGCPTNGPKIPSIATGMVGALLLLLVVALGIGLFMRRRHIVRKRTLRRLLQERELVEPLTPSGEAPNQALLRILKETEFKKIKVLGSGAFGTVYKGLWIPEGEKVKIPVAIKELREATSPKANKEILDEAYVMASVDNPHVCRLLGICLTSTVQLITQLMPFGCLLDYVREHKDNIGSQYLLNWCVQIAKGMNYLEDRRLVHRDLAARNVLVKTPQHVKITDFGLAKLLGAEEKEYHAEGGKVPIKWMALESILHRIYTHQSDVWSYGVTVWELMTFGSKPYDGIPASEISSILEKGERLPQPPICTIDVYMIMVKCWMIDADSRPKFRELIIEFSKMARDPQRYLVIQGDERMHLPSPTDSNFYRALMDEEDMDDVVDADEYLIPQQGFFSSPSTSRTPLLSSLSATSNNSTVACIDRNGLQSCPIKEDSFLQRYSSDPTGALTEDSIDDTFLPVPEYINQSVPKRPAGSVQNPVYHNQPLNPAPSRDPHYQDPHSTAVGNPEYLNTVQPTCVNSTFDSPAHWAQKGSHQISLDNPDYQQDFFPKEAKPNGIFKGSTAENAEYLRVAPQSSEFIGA
Description: as §1
as §2, with “Two microliters of serially diluted compound or PROTAC were then transferred to black 384-well Proxiplates (PerkinElmer, #6008260) using an Integra Viaflo96.” left out

[4] = biological target: EGFR L858R/T790M (Homo sapiens (Human), UniProt P00533, L858R/T790M); experiment: TR-FRET assay for ERBB kinases; format: biochemical; settings: geometric mean if measured more than once
Chain of EGFR L858R/T790M (P00533 25-1210 T790M/L858R): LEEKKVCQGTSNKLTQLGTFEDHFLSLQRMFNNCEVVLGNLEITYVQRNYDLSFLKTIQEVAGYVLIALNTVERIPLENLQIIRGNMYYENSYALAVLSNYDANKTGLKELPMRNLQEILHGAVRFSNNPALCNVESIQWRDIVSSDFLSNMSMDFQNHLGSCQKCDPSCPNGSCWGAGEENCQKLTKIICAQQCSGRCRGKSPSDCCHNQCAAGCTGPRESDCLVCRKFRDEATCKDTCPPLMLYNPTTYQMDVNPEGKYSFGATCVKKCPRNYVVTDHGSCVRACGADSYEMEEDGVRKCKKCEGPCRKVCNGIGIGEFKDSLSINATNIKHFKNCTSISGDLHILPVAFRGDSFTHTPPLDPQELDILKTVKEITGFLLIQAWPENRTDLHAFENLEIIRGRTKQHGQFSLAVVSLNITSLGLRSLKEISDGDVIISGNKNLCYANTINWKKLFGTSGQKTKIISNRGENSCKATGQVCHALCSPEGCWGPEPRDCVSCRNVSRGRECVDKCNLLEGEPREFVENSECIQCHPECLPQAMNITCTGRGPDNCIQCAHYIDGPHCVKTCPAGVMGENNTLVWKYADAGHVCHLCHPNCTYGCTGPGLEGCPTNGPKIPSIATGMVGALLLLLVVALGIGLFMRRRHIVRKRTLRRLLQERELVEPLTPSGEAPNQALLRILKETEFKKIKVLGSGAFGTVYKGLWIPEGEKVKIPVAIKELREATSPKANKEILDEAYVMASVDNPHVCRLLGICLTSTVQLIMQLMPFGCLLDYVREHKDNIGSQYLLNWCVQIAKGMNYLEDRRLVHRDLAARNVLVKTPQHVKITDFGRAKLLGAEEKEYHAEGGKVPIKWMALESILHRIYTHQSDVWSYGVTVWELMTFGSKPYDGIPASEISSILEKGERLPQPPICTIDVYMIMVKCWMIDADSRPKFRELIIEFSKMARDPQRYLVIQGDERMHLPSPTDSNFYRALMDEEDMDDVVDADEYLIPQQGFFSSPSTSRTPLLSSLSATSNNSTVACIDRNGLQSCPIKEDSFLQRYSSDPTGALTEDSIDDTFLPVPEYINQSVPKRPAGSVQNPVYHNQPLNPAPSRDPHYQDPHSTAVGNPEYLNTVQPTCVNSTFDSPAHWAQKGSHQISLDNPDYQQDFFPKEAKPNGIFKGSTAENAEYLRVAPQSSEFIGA
Description: as §1
as §2, with “Two microliters of serially diluted compound or PROTAC were then transferred to black 384-well Proxiplates (PerkinElmer, #6008260) using an Integra Viaflo96.” left out

[5] = biological target: EGFR L858R/T790M/C797S (Homo sapiens (Human), UniProt P00533, C797S/L858R/T790M); experiment: TR-FRET assay for ERBB kinases; format: biochemical; settings: geometric mean if measured more than once
Chain of EGFR L858R/T790M/C797S (P00533 25-1210 T790M/C797S/L858R): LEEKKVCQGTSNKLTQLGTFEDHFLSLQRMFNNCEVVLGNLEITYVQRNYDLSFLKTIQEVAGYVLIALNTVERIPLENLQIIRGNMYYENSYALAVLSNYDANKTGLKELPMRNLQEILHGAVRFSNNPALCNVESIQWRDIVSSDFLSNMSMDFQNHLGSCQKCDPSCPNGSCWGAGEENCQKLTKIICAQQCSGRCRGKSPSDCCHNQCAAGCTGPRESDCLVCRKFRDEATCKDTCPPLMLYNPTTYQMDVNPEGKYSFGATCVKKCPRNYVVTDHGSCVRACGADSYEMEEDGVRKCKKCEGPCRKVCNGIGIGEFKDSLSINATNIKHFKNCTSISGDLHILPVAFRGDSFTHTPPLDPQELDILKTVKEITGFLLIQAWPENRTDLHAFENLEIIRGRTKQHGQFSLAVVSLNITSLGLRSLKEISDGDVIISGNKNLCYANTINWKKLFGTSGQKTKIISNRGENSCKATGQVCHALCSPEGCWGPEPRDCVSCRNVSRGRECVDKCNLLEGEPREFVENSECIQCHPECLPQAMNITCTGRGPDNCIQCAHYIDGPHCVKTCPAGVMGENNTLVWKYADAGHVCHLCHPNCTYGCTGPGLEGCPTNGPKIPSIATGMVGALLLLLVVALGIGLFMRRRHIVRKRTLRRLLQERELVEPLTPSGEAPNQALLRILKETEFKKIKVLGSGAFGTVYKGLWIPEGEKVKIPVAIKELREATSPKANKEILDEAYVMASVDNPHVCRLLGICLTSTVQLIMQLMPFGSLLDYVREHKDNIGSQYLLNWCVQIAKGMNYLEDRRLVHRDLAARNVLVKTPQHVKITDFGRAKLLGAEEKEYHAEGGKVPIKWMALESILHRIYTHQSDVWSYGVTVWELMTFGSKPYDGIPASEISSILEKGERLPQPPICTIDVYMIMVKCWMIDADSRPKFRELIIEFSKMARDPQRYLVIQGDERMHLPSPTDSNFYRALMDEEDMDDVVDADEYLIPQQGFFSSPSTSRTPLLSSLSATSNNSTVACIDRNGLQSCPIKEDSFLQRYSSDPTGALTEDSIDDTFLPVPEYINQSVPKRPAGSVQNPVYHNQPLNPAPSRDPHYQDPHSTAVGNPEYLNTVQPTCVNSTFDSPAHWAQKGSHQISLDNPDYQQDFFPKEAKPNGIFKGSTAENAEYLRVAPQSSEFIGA
Description: as §1
as §2, with “Two microliters of serially diluted compound or PROTAC were then transferred to black 384-well Proxiplates (PerkinElmer, #6008260) using an Integra Viaflo96.” left out

[6] = biological target: EGFR L858R/T790M double mutant (H1975) (Homo sapiens (Human), UniProt P00533, L858R/T790M); experiment: EGFR protein degradation assay (Western blot); format: cell-based; settings: 72 hours, 300 nM to 10 nM
Description: as §3
Cells expressing the appropriate form of EGFR were seeded in 6-well plates (300,000 cells per well) and allowed to adhere to the plate overnight. […] To harvest cells, media was removed and cells were washed once with ice-cold phosphate-buffered saline (PBS) prior to the addition of 400 μl lysis buffer (Cell Signaling Technology) supplemented with a protease inhibitor cocktail (Thermo Scientific). Cells were scraped from the plate and the cell lysate transferred to an Eppendorf tube and then clarified by a single spin at 10 000 rpm for 10 minutes. The protein concentration of each lysate was determined (BCA kit, Thermo Scientific) prior to the addition of loading buffer (Invitrogen) and reducing agent (Invitrogen). 10 μg protein of each lysate was loaded on an SDS/PAGE gel and run at 165V for 2 hours. Following transfer to a PVDF membrane (iBlot2, Thermo Fisher Scientific), the membrane was blocked in Tris-buffered saline containing 0.1% Tween-20 (TBS-T) and supplemented with 5% powdered milk for 1 hour. Membranes were then probed with EGFR and tubulin (loaded control) primary antibodies in TBS-T containing 3% bovine serum albumin (BSA) overnight at 4° C. Membranes were washed thrice with TBS-T before incubation with secondary antibody in TBS-T containing 3% bovine serum albumin (BSA) and incubated for 1 hour at room temperature. Following 3 further washes with TBS, membrane proteins of interest were detected by enzyme-linked chemiluminescence (ECL) using a Chemidoc (Bio-Rad).

Chain of EGFR Exon20NPG (P00533 other isoform, or with tags, fused parts or gaps del 1-694/ins NPG behind 770 limits assumed): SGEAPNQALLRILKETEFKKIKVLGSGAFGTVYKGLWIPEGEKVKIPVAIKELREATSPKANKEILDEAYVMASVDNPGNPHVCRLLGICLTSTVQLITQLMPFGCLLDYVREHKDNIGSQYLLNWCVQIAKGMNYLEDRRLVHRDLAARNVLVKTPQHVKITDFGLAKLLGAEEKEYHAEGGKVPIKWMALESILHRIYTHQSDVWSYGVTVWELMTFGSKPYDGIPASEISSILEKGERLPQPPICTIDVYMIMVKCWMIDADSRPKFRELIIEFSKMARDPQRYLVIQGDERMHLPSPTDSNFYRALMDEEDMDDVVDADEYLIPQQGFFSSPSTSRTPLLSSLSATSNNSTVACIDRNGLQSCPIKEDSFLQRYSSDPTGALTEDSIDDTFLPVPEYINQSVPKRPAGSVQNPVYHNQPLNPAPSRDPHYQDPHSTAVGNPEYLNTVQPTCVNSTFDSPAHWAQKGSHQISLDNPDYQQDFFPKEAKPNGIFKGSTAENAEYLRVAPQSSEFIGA

Row | Compound | pIC50 [1] | EGFR protein remaining, EGFR L858R/T790M/C797S triple mutant [2] | pIC50 [3] | pIC50 [4] | pIC50 [5] | EGFR protein remaining, EGFR L858R/T790M double mutant [6]
1 | Cc1ncsc1-c1ccc([C@H](C)NC(=O)[C@H]2C[C@H](O)CN2C(=O)[C@@H](NC(=O)COCCCOCCCC#Cc2cccc3c2C(=O)N(C(C(=O)Nc2nccs2)c2cc(F)ccc2O)C3)C(C)(C)C)cc1 (some centres unmarked) [compound 93] | 5.48 | C (>80% EGFR protein remaining after 72 hours of incubation with the test compound at a concentration of 300 nM) | 4.96 | 5.46 | 6.28 | C (>80% EGFR protein remaining after 72 hours of incubation with the test compound at a concentration of 300 nM)
2 | Cc1ncsc1-c1ccc([C@H](C)NC(=O)[C@H]2C[C@H](O)CN2C(=O)[C@@H](NC(=O)COCCOCCOCCOCCOCCOc2ccc(-c3nccc(Nc4cc5c(cn4)nc(C)n5C(C)C)n3)cc2)C(C)(C)C)cc1 [compound 280] | < 4.52 | C (>80% EGFR protein remaining after 72 hours of incubation with the test compound at a concentration of 300 nM) | < 4.52 | < 4.52 | < 4.52 | –
3 | Cc1ncsc1-c1ccc([C@H](C)NC(=O)[C@H]2C[C@H](O)CN2C(=O)[C@@H](NC(=O)COCCOCCOCCOCCOC2CCN(c3nccc(Nc4cc5c(cn4)nc(C)n5C(C)C)n3)CC2)C(C)(C)C)cc1 [compound 284] | 4.52 | C (>80% EGFR protein remaining after 72 hours of incubation with the test compound at a concentration of 300 nM) | 4.85 | < 4.52 | 4.92 | –
4 | O=C1CCC(N2C(=O)c3ccc(OCCOCCOCCOCCCc4cccc5c4C(=O)N(C(C(=O)Nc4nccs4)c4cc(F)ccc4O)C5)cc3C2=O)C(=O)N1 (centres unmarked) [Example 283, 2-(7-(3-(2-(2-(2-((2-(2,6-dioxopiperidin-3-yl)-1,3-dioxoisoindolin-5-yl)oxy)ethoxy)ethoxy)ethoxy)propyl)-1-oxoisoindolin-2-yl)-2-(5-fluoro-2-hydroxyphenyl)-N-(thiazol-2-yl)acetamide] | 5.34 | C (>80% EGFR protein remaining after 72 hours of incubation with the test compound at a concentration of 300 nM) | 5.92 | 5.55 | 6.09 | –
5 | COC1CCN(c2nccc(Nc3cc4c(cn3)nc(COCCN3CCN(c5ccc(O[C@H]6C[C@H](OCC(=O)N[C@H](C(=O)N7C[C@H](O)C[C@H]7C(=O)NCc7ccc(-c8scnc8C)cc7)C(C)(C)C)C6)cc5)CC3)n4C(C)C)n2)CC1 [Example 302, (2S,4R)-4-hydroxy-1-((S)-2-(2-((1r,3s)-3-(4-(4-(2-((1-isopropyl-6-((2-(4-methoxypiperidin-1-yl)pyrimidin-4-yl)amino)-1H-imidazo[4,5-c]pyridin-2-yl)methoxy)ethyl)piperazin-1-yl)phenoxy)cyclobutoxy)acetamido)-3,3-dimethylbutanoyl)-N-(4-(4-methylthiazol-5-yl)benzyl)pyrrolidine-2-carboxamide] | – | A (≤50% EGFR protein remaining after 72 hours of incubation with the test compound at a concentration between 300 nM and 10 nM) | < 4.52 | 6.17 | 6.49 | –
6 | COC1CCN(c2nccc(Nc3cc4c(cn3)nc(COCCN3CCN(c5ccc(OCCCOCC(=O)N[C@H](C(=O)N6C[C@H](O)C[C@H]6C(=O)NCc6ccc(-c7scnc7C)cc6)C(C)(C)C)cc5)CC3)n4C(C)C)n2)CC1 [compound 303] | – | A (≤50% EGFR protein remaining after 72 hours of incubation with the test compound at a concentration between 300 nM and 10 nM) | < 4.52 | 6.26 | 6.60 | –
7 | O=C1CCC(N2C(=O)c3cccc(NCCOCCOCCOCCOCCOCCOCC#Cc4cccc5c4C(=O)N(C(C(=O)Nc4nccs4)c4cc(F)ccc4O)C5)c3C2=O)C(=O)N1 (centres unmarked) [compound 295] | – | C (>80% EGFR protein remaining after 72 hours of incubation with the test compound at a concentration of 300 nM) | 4.47 | 5.51 | 6.15 | –
8 | O=C1CCC(N2C(=O)c3cccc(NCCOCCOCCOCCOCCOCCOCCCc4cccc5c4C(=O)N(C(C(=O)Nc4nccs4)c4cc(F)ccc4O)C5)c3C2=O)C(=O)N1 (centres unmarked) [compound 300] | – | C (>80% EGFR protein remaining after 72 hours of incubation with the test compound at a concentration of 300 nM) | 5.57 | 4.70 | 5.51 | –
9 | Cc1ncsc1-c1ccc([C@H](C)NC(=O)[C@@H]2C[C@@H](O)CN2C(=O)[C@@H](NC(=O)COCCOCCOCCc2ccc(OC3CCN(c4nccc(Nc5cc6c(cn5)nc(C)n6C(C)C)n4)CC3)cc2)C(C)(C)C)cc1 [Example 291, (2S,4R)-1-((S)-2-(Tert-butyl)-14-(4-((1-(4-((1-isopropyl-2-methyl-1H-imidazo[4,5-c]pyridin-6-yl)amino)pyrimidin-2-yl)piperidin-4-yl)oxy)phenyl)-4-oxo-6,9,12-trioxa-3-azatetradecanoyl)-4-hydroxy-N—((S)-1-(4-(4-methylthiazol-5-yl)phenyl)ethyl)pyrrolidine-2-carboxamide] | – | C (>80% EGFR protein remaining after 72 hours of incubation with the test compound at a concentration of 300 nM) | 4.85 | < 4.22 | < 4.22 | –
